# Data published in ChEMBL document CHEMBL1201862, “PubChem BioAssay data set” (2004).
# Activity calls are given as the source filed them.
# What was measured:
# [1] = target: FAD-linked sulfhydryl oxidase ALR (Homo sapiens, UniProt P55789); assay: ALR-catalysed DTT oxidation blockers – biochemical, H2O2 detection, luminescence, cherry-pick, dose response (AID 493248)
# cells [2] = type: functional, cell-based
# cells [3] = type: functional, cell-based; remark: listed apart in the source
# Nonstructural protein 1 = Nonstructural protein 1 (Influenza A virus, UniProt Q194T2); type: functional, Influenza A virus (A/California/07/2009(H1N1))
# Chain of Nonstructural protein 1 (Q194T2 whole entry): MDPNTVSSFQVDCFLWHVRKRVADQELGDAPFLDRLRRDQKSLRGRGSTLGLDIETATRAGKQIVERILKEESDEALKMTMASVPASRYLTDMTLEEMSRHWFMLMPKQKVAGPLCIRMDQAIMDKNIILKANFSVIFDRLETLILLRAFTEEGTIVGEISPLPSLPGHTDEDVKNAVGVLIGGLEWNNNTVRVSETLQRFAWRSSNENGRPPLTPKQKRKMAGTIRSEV
# Paired box protein Pax-8 = Paired box protein Pax-8 (Homo sapiens, UniProt Q06710); assay: PAX8 transcriptional activity inhibition in RMG-I – RMG-I cells, luciferase, cherry-pick, dose response (AID 687027); type: functional, cell-based;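 also: luciferase reporter driven by Pax8 target thyroperoxidase promoter measured by SteadyGlo luminescence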
# Chain of Paired box protein Pax-8 (Q06710 whole entry): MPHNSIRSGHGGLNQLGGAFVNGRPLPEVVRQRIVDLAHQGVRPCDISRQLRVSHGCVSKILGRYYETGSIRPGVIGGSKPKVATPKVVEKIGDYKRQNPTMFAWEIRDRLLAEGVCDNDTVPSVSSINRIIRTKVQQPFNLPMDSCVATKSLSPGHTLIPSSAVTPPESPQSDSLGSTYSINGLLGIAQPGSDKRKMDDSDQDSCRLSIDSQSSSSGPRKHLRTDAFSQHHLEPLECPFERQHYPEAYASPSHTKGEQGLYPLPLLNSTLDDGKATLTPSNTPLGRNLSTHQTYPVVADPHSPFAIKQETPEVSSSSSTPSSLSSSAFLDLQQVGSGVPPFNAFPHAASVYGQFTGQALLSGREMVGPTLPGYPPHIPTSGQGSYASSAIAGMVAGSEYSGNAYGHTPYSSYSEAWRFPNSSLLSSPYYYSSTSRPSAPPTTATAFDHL
# [4] = microbe, parasite or virus in culture; type: functional; conditions: Mycobacterium tuberculosis
# [5] = viability of PTEN-deleted HCT116 cells – cell-based, HCT116 PTEN knockout, dose response (AID 1047); type: functional;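 also: HCT116 colon tumor cells with PTEN knocked out; cells exposed to compound for 60 hours before readout; potency for loss of cell viability measured by luminescence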
# [6] = viability of HCT116 lacking mutant beta-catenin – cell-based, human colon tumor, dose response (AID 1045); type: functional;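 also: HCT116 colon tumor cells with beta catenin knocked out; cells exposed to compound for 60 hours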
# [7] = target: T1, RNA-binding protein pos-1 (Caenorhabditis elegans, UniProt G5EF15); assay: disruptors of C. elegans POS-1 RNA interaction – biochemical, fluorescence polarization, dose response (AID 1964);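 also: purified POS-1 fused to maltose binding protein made in E. coli; potency of compounds blocking POS-1 binding to fluorescent RNA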
# T1 sequence (G5EF15 whole entry): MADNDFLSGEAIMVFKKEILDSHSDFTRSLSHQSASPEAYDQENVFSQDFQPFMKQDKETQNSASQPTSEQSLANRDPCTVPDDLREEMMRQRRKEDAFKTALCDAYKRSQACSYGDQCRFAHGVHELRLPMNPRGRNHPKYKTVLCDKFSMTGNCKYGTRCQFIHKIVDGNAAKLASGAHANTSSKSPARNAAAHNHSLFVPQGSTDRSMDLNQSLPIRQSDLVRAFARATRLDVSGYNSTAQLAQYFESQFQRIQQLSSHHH
# [8] = target: T2, Rac GTPase-activating protein 1 (Homo sapiens, UniProt Q9H0H5); assay: blockers of MgcRacGAP-driven Rac1 GTP hydrolysis – biochemical, ADP Hunter fluorescence, primary and confirmatory, confirmation (AID 624330); type: functional
# T2 sequence (Q9H0H5 whole entry): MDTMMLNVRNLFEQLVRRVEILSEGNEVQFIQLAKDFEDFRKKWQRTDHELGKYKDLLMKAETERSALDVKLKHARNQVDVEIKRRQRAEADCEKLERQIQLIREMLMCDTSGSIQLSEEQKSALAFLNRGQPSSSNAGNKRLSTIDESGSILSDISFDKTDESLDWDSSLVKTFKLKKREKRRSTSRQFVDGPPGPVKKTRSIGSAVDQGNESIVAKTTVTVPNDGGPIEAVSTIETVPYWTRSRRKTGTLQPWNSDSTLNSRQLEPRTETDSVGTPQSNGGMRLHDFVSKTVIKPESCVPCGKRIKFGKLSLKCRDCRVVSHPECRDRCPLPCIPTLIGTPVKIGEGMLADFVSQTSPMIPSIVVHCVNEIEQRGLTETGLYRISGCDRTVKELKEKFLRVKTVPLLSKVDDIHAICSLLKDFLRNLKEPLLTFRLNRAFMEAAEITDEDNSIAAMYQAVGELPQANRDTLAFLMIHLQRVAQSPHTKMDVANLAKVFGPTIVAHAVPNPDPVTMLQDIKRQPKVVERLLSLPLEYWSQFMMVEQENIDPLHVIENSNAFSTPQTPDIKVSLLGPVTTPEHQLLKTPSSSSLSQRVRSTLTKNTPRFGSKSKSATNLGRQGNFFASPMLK
# [9] = luciferase reporter signal suppression in cells – H4 neuroglioma cells, luminescence, dose response (AID 1990); type: functional, cell-based
# [10] = Luminescence Cell-Based Dose Response HTS to Identify Inhibitors of 5'UTR Stem-Loop Driven Prion Protein mRNA Translation in H4 Neuroglioblastoma Cells. [Related pubchem assays: 1827 (Project Summary), 1813 (Primary HTS)]; type: functional
# [11] = alpha-synuclein stem-loop luciferase translation blockers – H4 neuroglioma cells, luminescence, confirmation (AID 1988); type: functional, cell-based
# [12] = Luminescence Cell-Based Dose Retest to Confirm Inhibitors of Cancer Stem Cells. [Related pubchem assays (depositor defined):AID2717, AID2721]; type: functional; conditions: Homo sapiens
# [13] = target: T3, Carboxy-terminal domain RNA polymerase II polypeptide A small phosphatase 1 (Homo sapiens, UniProt Q9GZU7); assay: CTDSP1 inhibitors, concentration-response, biochemical, absorbance readout, ultra-high-throughput screen actives (AID 540297); type: functional
# T3 sequence (Q9GZU7 whole entry): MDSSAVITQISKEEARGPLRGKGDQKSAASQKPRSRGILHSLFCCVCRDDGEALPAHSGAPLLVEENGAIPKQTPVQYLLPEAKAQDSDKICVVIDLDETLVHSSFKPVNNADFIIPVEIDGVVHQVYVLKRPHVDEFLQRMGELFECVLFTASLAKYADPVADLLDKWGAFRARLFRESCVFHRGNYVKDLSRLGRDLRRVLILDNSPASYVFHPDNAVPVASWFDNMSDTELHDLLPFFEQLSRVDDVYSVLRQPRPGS
# Cytochrome P450 1A2 = target: T4, Cytochrome P450 1A2 (Homo sapiens, UniProt P05177);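 also: PubChem cytochrome P450 panel assay, CYP1A2 panel member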
# T4 sequence (P05177 whole entry): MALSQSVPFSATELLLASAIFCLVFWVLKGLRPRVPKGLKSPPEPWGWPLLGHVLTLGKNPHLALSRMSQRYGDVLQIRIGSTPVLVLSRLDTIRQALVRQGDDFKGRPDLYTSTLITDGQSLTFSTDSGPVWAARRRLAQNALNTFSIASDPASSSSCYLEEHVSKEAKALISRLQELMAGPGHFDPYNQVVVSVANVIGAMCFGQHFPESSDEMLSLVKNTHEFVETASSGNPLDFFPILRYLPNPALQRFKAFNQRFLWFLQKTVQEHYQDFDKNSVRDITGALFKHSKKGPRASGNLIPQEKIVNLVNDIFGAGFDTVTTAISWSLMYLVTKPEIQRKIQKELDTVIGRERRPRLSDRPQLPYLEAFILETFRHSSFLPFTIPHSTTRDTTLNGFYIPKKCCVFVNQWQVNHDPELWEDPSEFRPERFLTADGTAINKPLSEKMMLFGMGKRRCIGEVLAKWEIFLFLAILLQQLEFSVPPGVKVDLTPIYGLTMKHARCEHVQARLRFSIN
# Cytochrome P450 3A4 = Cytochrome P450 3A4 (Homo sapiens, UniProt P08684);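 also: CYP3A4 tested as one member of a cytochrome P450 panel screen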
# Chain of Cytochrome P450 3A4 (P08684 whole entry): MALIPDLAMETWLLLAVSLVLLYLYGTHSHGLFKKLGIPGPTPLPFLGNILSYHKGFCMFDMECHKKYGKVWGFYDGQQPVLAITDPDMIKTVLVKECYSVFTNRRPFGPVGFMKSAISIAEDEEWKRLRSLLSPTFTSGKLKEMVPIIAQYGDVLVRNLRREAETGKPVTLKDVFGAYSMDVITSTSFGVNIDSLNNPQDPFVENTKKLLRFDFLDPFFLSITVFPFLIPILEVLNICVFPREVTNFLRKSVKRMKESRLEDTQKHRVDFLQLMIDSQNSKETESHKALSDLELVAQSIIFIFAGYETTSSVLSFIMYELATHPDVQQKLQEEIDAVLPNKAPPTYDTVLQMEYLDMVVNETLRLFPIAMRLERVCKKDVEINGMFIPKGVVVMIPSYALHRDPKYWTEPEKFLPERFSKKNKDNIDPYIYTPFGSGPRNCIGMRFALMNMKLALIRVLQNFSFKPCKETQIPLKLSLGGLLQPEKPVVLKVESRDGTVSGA
# Cytochrome P450 2C9 = Cytochrome P450 2C9 (Homo sapiens, UniProt P11712)
# Chain of Cytochrome P450 2C9 (P11712 whole entry): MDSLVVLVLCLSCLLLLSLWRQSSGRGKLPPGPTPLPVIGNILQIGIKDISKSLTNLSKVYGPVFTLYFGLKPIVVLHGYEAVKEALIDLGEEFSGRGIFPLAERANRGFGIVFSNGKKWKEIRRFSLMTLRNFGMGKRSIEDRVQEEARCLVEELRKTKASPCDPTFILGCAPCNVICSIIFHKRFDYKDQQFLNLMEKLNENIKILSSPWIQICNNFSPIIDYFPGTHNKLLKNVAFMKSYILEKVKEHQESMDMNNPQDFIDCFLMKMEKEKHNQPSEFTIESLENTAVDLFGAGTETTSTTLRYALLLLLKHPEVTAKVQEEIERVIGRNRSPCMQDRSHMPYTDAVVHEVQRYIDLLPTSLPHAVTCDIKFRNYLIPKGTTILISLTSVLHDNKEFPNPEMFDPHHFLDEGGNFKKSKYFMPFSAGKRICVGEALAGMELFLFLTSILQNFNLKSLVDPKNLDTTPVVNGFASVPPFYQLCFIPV
# [14] = NIH-3T3 fibroblast cytotoxicity, dose response, cytotoxicity control, cell-based, fluorescence, Alamar Blue, secondary assay (AID 2327); type: functional;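 also: NIH-3T3 mouse fibroblasts cultured with fluconazole at 8 µg/mL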
# [15] = fluconazole-exposed Candida albicans growth modulators – fluorescence, retest, confirmation (AID 2467); type: functional, cell-based
# [16] = Luminescence Cell-Based Dose Response HTS to Identify Activators of Luciferase Translation or Activity in H4 […] Cells. [Related pubchem assays: 1829 (Project Summary), 1814 (Primary HTS)]; type: functional
# H4 = assay: Luminescence Cell-Based Dose Response HTS to Identify Activators of 5'UTR Stem-Loop Driven Prion Protein mRNA Translation in H4 Neuroglioblastoma Cells. [Related pubchem assays: 1829 (Project Summary), 1814 (Primary HTS)]; type: functional; conditions: Homo sapiens
# INS1 = assay: INS-1E survival protection against cytokine death – cell-based, luminescence, retest, dose response (AID 449756); type: functional; conditions: Rattus norvegicus;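 also: cell death triggered by IL-1 beta plus TNF-alpha plus IFN-gamma mixture; protective hits raise ATP signal compared with cytokine alone wells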
# Chain of FAD-linked sulfhydryl oxidase ALR (P55789 whole entry): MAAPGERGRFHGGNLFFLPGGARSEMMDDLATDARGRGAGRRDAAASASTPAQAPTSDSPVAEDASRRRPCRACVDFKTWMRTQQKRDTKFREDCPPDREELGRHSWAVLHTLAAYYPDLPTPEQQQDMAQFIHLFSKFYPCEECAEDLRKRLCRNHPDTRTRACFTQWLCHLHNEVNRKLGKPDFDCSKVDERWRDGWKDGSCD
smiles,measurement,setting,value
CCc1ccc(-c2csc3[n+]2CCN3C(C)=O)cc1,AC50,[1],3.62 µM (active)
COc1ccc(C(=O)CSc2nncn2C)cc1,EC50,cells [2],> 350 µM (not active)
same,EC50,cells [3],> 350 µM (not active)
O=C1CC(NNc2ccccc2)C(=O)N1c1cccc(Cl)c1 (centres undefined),AC50,[1],0.319 µM (active)
Oc1ccc2ccccc2c1N=Nc1ccc(F)cc1,IC50,Nonstructural protein 1,16.2 µM (active)
CC1CC/C(=N/Nc2ccccc2)C(=O)N1 (centres undefined),AC50,[1],0.623 µM (active)
N#CCC(=O)Nc1sc2c(c1C(N)=O)CCCC2,AC50,[1],14.4 µM (active)
Cc1oc(-c2ccc(Cl)cc2)cc1/C(O)=C(C#N)/C=N/c1cccc(OC(F)(F)F)c1,EC50,cells [2],> 350 µM (not active)
same,EC50,cells [3],> 350 µM (not active)
C[C@@H]1CN([C@H](C)CO)C(=O)c2cc(NC(=O)Nc3ccc(C(F)(F)F)cc3)ccc2O[C@@H](C)CCCCO[C@H]1CN(C)C(=O)Nc1ccc(F)cc1,AC50,Paired box protein Pax-8,1.41 µM (active)
O=c1[nH]c(=O)n(Cc2ccccc2)c2nc(-c3ccc(Oc4ccc(F)cc4)c([N+](=O)[O-])c3)n(CCO)c12,CC50,[4],13.9 µM (active)
same,EC50,[5],7.51 µM (active)
same,EC50,[6],8.03 µM (active)
Oc1ccc(/C=N/Nc2[nH]cnc3ncnc2-3)cc1,EC50,[7],> 300 µM (not active)
same,IC50,[8],11.6 µM (active)
CN1CCN(C2Cc3ccc(F)cc3Sc3cc(F)c(Cl)cc32)CC1 (centres undefined),EC50,[9],> 120 µM (not active)
same,EC50,cells [2],> 350 µM (not active)
same,EC50,[10],> 120 µM (not active)
same,EC50,[11],> 60 µM (not active)
same,EC50,cells [3],20.1 µM (active)
same,AC50,[12],6.08 µM (active)
CC(C)n1cnc2c(NCc3ccccc3)cc(Cc3ccc(F)cc3)cc21,CC50,[4],> 40 µM (active)
same,AC50,[12],1.78 µM (active)
NC(=NO)c1ccc(NC(=O)c2ccc(Br)o2)cc1,AC50,[1],0.16 µM (active)
O=C(CCc1nnc(-c2ccccc2)o1)c1ccc(Cl)cc1,EC50,cells [2],> 350 µM (not active)
CCOCCCNS(=O)(=O)c1ccc(NC(=O)N2c3ccccc3Sc3ccccc32)cc1,CC50,[4],36.6 µM (active)
Cc1c(CCC(=O)N[C@@H](C)C(=O)O)c(=O)oc2c(C)c3oc4c(c3cc12)CCCC4,AC50,[1],3.72 µM (active)
CC(C)[C@H](NC(=O)c1ccco1)C(=O)OCc1cc(=O)n2c(n1)sc1ccccc12,EC50,cells [2],> 350 µM (not active)
same,EC50,cells [3],> 350 µM (not active)
C/C=C\C=C\C(=O)N1CC2(CC(c3cccc(NC(=O)CC)c3)=NO2)C[C@H]1C(N)=O (some centres undefined),IC50,[13],7.57 µM (active)
Cc1nnc(S)n1/N=C/c1cccc(OCc2ccccc2)c1,CC50,[4],> 40 µM (active)
CCn1c(C)cc(/C=C2\SC(=O)N(CC(=O)Nc3ccc(C)c(C)c3)C2=O)c1C,EC50,[5],210 µM (active)
same,EC50,[6],24.1 µM (active)
same,AC50,Cytochrome P450 1A2,8.91 µM (inconclusive)
same,AC50,Cytochrome P450 3A4,1 µM (inconclusive)
same,AC50,Cytochrome P450 2C9,1.58 µM (inconclusive)
COC(=O)c1ccc(/C=C/c2c(-c3ccsc3)oc3ccc(N4CCOCC4)cc23)cc1,CC50,[4],> 40 µM (active)
same,AC50,[12],3.33 µM (active)
O=C(N/N=C/C1C(=O)NC(=S)N(c2ccccc2)C1=O)c1cc(Br)c(O)c(Br)c1 (centres undefined),IC50,Nonstructural protein 1,10.5 µM (active)
C[C@H]1CCCCO[C@@H](CN(C)C(=O)Nc2ccc(C(F)(F)F)cc2)[C@@H](C)CN([C@@H](C)CO)C(=O)c2cc(NS(=O)(=O)c3cn(C)cn3)ccc2O1,AC50,Paired box protein Pax-8,17.9 µM (active)
c1ccc(-c2ccccc2OCCCN2CCCCCC2)cc1,EC50,[14],> 150 µM (inactive)
same,EC50,[15],> 38 µM (not active)
Nc1ccc(NC(=O)c2ccco2)c(Cl)c1,AC50,[1],1.72 µM (active)
CS(=O)(=O)C1=NN2C(=N)/C(=C\c3ccc(OCCOc4ccccc4)cc3)C(=O)N=C2S1,IC50,[13],6.76 µM (active)
Cc1cccc(NC(=O)CC23CC4CC(C2)CC(n2nnc(C)n2)(C4)C3)c1,AC50,Paired box protein Pax-8,37.1 µM (active)
Cc1cc2c(s1)Nc1ccccc1N=C2N1CCN(C)CC1 [OLANZAPINE],AC50,[1],0.369 µM (active)
N#C/C(=C\c1ccccc1[N+](=O)[O-])c1nc(C2CC2)cs1,IC50,Nonstructural protein 1,75.1 µM (active)
O=C(COC(=O)c1ccccc1[N+](=O)[O-])c1ccc2c(c1)OCO2,EC50,[16],> 120 µM (not active)
same,EC50,H4,36 µM (active)
CC(OC(=O)COc1ccc(Nc2ccccc2)cc1)C(=O)N(C)c1ccccc1 (centres undefined),EC50,cells [2],> 350 µM (not active)
same,EC50,cells [3],30.5 µM (active)
Cc1ccn(CC(=O)N/N=C/c2cc([N+](=O)[O-])ccc2O)n1,IC50,Nonstructural protein 1,7.07 µM (active)
COc1ccc(CSC2=NCCN2)cc1Br,AC50,[1],0.007 µM (active)
CCOC(=O)c1c(NC(=O)CN2CCN(C(=O)c3ccco3)CC2)sc2c1CCCC2,EC50,[14],> 150 µM (inactive)
same,EC50,[15],> 38 µM (not active)
same,EC50,[5],35.1 µM (active)
same,EC50,[6],28.7 µM (active)
O=C1/C(=C\c2cccnc2)CN(Cc2ccccc2)C/C1=C\c1cccnc1,EC50,[5],1.29 µM (active)
same,EC50,[6],0.429 µM (active)
same,AC50,[12],2.06 µM (active)
same,AC50,INS1,4.87 µM (active)
CCCC(=O)Nc1ccc2c(c1)C(=O)N(C)C[C@@H](OC)[C@H](C)CN(Cc1ccc(-c3ccccn3)cc1)[C@H](C)CO2,AC50,Paired box protein Pax-8,28.7 µM (active)
Cc1ccc2c(c1)C1NC(S)=NC(C)(O2)C1C(=O)Nc1ccc(Cl)cc1 (centres undefined),EC50,cells [2],> 350 µM (not active)
same,EC50,cells [3],> 350 µM (not active)
CC(C(=O)Nc1ccc(S(N)(=O)=O)cc1)N1CCc2ccccc21 (centres undefined),AC50,[1],1.8 µM (active)
COc1ccc(CNS(=O)(=O)c2cc3c4c(c2)C(C)C(=O)N4CCC3)cc1 (centres undefined),EC50,cells [2],> 350 µM (not active)
same,EC50,cells [3],> 350 µM (not active)
c1ccc(CSc2nnc(-c3cccs3)n2Cc2ccco2)cc1,EC50,[14],> 150 µM (inactive)
same,EC50,[15],> 38 µM (not active)
